Experiments:
[1] = system: rice leafroller (Cnaphalocrocis medinalis); assay: Insecticidal effect on rice leafroller (Test Example 3); type: in vivo; conditions: 500 ppm, 25° C., humidity 70%; for Insecticidal effect, Test Example 3: rice lamina immersed; for Insecticidal effect, Test Example 3 / Insecticidal effect on rice leafroller (Test Example 3), judged grade: four days after inoculation; for Insecticidal effect (Test Example 3), judged from mortality / Insecticidal effect on rice leafroller (Test Example 3), judged grade: rice lamina dip; for Insecticidal effect (Test Example 3), judged from mortality: 4 days after inoculation; for Insecticidal effect on rice leafroller (Test Example 3), judged grade: third-instar larvae
How it was run: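 Insecticidal effect is judged by a predefined criterion from dead/alive counts four days after infesting air-dried lamina with third-instar larvae, kept on moistened filter paper at 25° C, 70% humidity.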

[2] = system: diamondback moth (Plutella xylostella); assay: Insecticidal effect on diamondback moth (Test Example 1); type: in vivo; conditions: for Insecticidal effect, Test Example 1 / Insecticidal effect (Test Example 1), judged from mortality: diamondback moth; for Insecticidal effect (Test Example 1), judged from mortality: judged by the criterion of Test Example 1; for Insecticidal effect on diamondback moth (Test Example 1), judged grade: mortality judged according to the criterion shown in Test Example 1
How it was run: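 Oviposition by adults on Chinese cabbage seedling; immersion; air-dry; 25° C room. Count of hatched larvae at day 6 post-immersion → mortality → effect graded by criterion. Triplicate, 10 insects/group.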

[3] = rice leafroller third-instar larvae
[4] = mortality judged by criterion of Test Example 1
[5] = third-instar larvae of rice leafroller
[6] = judged by the mortality criterion of Test Example 1

| Structure (SMILES) | Insecticidal effect, Test Example 3 [1, 3] | Insecticidal effect, Test Example 1 [2, 4] | Insecticidal effect on rice leafroller (Test Example 3), judged grade [1] | Insecticidal effect on diamondback moth (Test Example 1), judged grade [2] | further results |
| --- | --- | --- | --- | --- | --- |
| CC(C)NC(=O)c1c(C(=O)Nc2ccc([S+]([O-])C(F)(F)Br)cc2)cccc1[N+](=O)[O-] (stereo not shown) [compound 1109] | A (100) | A (100) |  |  |  |
| CC(C)NC(=O)c1ccccc1C(=O)Nc1ccc2c(c1)OC(F)(F)C(F)(F)O2 [compound 975] | A (100) | A (100) |  |  |  |
| CC(C)NC(=O)c1c(Cl)cccc1C(=O)Nc1cc2c(cc1Cl)OC(F)(F)C(F)(F)O2 [compound 1643] |  |  |  |  | Insecticidal effect (Test Example 3), judged from mortality [1, 5]: A (100); Insecticidal effect (Test Example 1), judged from mortality [2]: A (100) |
| Cc1cc(Cl)ccc1NC(=O)c1cccc(OC(F)F)c1C(=O)NC(C)C [compound 772] |  |  | A (100) | A (100) |  |
| CC(C)NC(=O)c1c(C(=O)Nc2ccccc2Cl)cccc1[N+](=O)[O-] [compound 586] |  |  | D (79-50) | A (100) |  |
| Cc1cc(OC(F)(F)F)ccc1NC(=O)c1ccc(F)c(F)c1C(=O)NC(C)(C)C [compound 1284] | A (100) | A (100) |  |  |  |
| Cc1cc(OC(F)(F)F)ccc1NC(=O)c1c(Cl)cccc1C(=O)NC(C)C [compound 237] |  |  |  |  | Insecticidal effect, Test Example 3 [1, 5]: A (100); Insecticidal effect, Test Example 1 [2, 6]: A (100) |
| Cc1cc(Oc2ccc(C(F)(F)F)cc2Cl)ccc1NC(=O)c1ccccc1C(=O)NC(C)C [compound 75] |  |  |  |  | Insecticidal effect, Test Example 3 [1, 5]: A (100); Insecticidal effect, Test Example 1 [2, 6]: A (100) |
| Cc1cc(C(F)(F)C(F)(F)F)ccc1NC(=O)c1c(Cl)cccc1C(=O)NC1CCCO1 (stereo not shown) [compound 1393] | A (100) | A (100) |  |  |  |
| Cc1cc(C(F)(F)C(F)(F)F)ccc1NC(=O)c1cccc(I)c1C(=O)N1CCCC1 [compound 1047] | A (100) | A (100) |  |  |  |
| Cc1cc(OC(F)(F)Br)ccc1NC(=O)c1c(Cl)cccc1C(=O)NC(C)C [compound 238] |  |  |  |  | Insecticidal effect, Test Example 3 [1, 5]: A (100); Insecticidal effect, Test Example 1 [2, 6]: A (100) |
| CC(C)(C)NC(=O)c1ccccc1C(=O)Nc1ccc2c(c1)OC(F)C(F)(F)O2 (stereo not shown) [compound 1149] | A (100) | A (100) |  |  |  |
| Cc1ccc(F)cc1NC(=O)c1ccccc1C(=O)NC(C)C [compound 53] |  |  |  |  | Insecticidal effect, Test Example 3 [1, 5]: A (100); Insecticidal effect, Test Example 1 [2, 6]: A (100) |
| CC(C)NC(=O)c1cccc(I)c1C(=O)Nc1ccc(OC(F)F)c(F)c1 [compound 448] |  |  | A (100) | A (100) |  |
| Cc1ccc(Cl)cc1NC(=O)c1cc(OC(F)F)ccc1C(=O)NC(C)C [compound 776] |  |  | D (79-50) | B (99-90) |  |
| Cc1cc(C(F)(F)C(F)(F)C(F)(F)F)ccc1NC(=O)c1c(F)cccc1C(=O)NC(C)C [compound 555] |  |  | B (99-90) | A (100) |  |
| Cc1ccc(NC(=O)c2cccc([N+](=O)[O-])c2C(=O)NC(C)C)c(C)c1Cl [compound 670] |  |  | D (79-50) | A (100) |  |
| Cc1cc(C(F)(F)C(F)(F)F)ccc1NC(=O)c1cccc(Cl)c1C(=O)Nc1ccco1 [compound 1390] | A (100) | A (100) |  |  |  |
| CCN(CC)C(=O)c1c(C(=O)Nc2ccc(OC(F)(F)F)cc2C)ccc(F)c1F [compound 1285] | A (100) | A (100) |  |  |  |
| CCc1cc(OC(F)(F)F)ccc1NC(=O)c1ccccc1C(=O)NC(C)C [compound 1208] | A (100) | A (100) |  |  |  |
| CC(C)NC(=O)c1cccc(I)c1C(=O)Nc1ccc(OC(F)(F)F)cc1Cl [compound 467] |  |  | A (100) | A (100) |  |
| CC(C)NC(=O)c1cccc(I)c1C(=O)Nc1ccc(I)cc1 [compound 413] |  |  |  |  | Insecticidal effect, Test Example 3 [1, 5]: C (89-80); Insecticidal effect, Test Example 1 [2, 6]: A (100) |
| CCN(CC)C(=O)c1c(C(=O)Nc2ccc(OC(F)(F)C(F)F)cc2C)cccc1[N+](=O)[O-] [compound 1132] | A (100) | A (100) |  |  |  |
| Cc1cc(C#CC(C)(C)C)ccc1NC(=O)c1cccc(Cl)c1C(=O)NC(C)C [compound 1301] | A (100) | A (100) |  |  |  |

| Structure (SMILES) | Insecticidal effect, Test Example 3 [1, 3] | Insecticidal effect, Test Example 1 [2, 4] | Insecticidal effect on rice leafroller (Test Example 3), judged grade [1] | Insecticidal effect on diamondback moth (Test Example 1), judged grade [2] | further results |
| --- | --- | --- | --- | --- | --- |
| CC(C)NC(=O)c1c(C(=O)Nc2ccccc2C(C)C)cccc1[N+](=O)[O-] [compound 603] |  |  | C (89-80) | B (99-90) |  |
| Cc1ccc(Cl)cc1NC(=O)c1cc2ccccc2cc1C(=O)NC(C)C [compound 822] |  |  | D (79-50) | D (79-50) |  |
| Cc1cc(OC(F)(F)C(F)OC(F)(F)F)ccc1NC(=O)c1cccc(F)c1C(=O)NC(C)C (stereo not shown) [compound 515] |  |  | C (89-80) | A (100) |  |
| Cc1cc(Cl)ccc1NC(=O)c1c(F)cccc1C(=O)NC(C)C [compound 545] |  |  | A (100) | A (100) |  |
| COc1ccccc1NC(=O)c1cccc([N+](=O)[O-])c1C(=O)NC(C)C [compound 612] |  |  | D (79-50) | A (100) |  |
| Cc1cc(OCC(F)(F)F)ccc1NC(=O)c1c(I)cccc1C(=O)NC(C)C [compound 443] |  |  |  |  | Insecticidal effect, Test Example 3 [1, 5]: D (79-50); Insecticidal effect, Test Example 1 [2, 6]: A (100) |
| Cc1cc(OC(C)C)ccc1NC(=O)c1cccc(I)c1C(=O)NC(C)C [compound 377] |  |  |  |  | Insecticidal effect, Test Example 3 [1, 5]: A (100); Insecticidal effect, Test Example 1 [2, 6]: A (100) |
| Cc1cc(Cl)ccc1NC(=O)c1cccc(C)c1C(=O)NC(C)C [compound 750] |  |  | A (100) | A (100) |  |
| Cc1cc(OC(F)(F)F)ccc1NC(=O)c1c(I)cccc1C(=O)NC(C)C [compound 464] |  |  | A (100) | A (100) |  |
| CC(C)NC(=O)c1c(I)cccc1C(=O)Nc1cccc(C(F)(F)F)c1 [compound 348] |  |  |  |  | Insecticidal effect, Test Example 3 [1, 5]: A (100); Insecticidal effect, Test Example 1 [2, 6]: A (100) |
| CC(C)(C)NC(=O)c1ccccc1C(=O)Nc1ccccc1 [compound 840] |  |  | D (79-50) | A (100) |  |
| COCCCNC(=O)c1cccc(I)c1C(=O)Nc1ccc(C(F)(F)C(F)(F)F)cc1C [compound 986] | A (100) | A (100) |  |  |  |
| CCN(CC)C(=O)c1cccc(I)c1C(=O)Nc1ccc(C(F)(F)C(F)(F)F)cc1C [compound 1036] | A (100) | A (100) |  |  |  |
| CC(C)NC(=O)c1ccccc1C(=O)Nc1ccc(C(F)(F)F)cc1Cl [compound 45] |  |  |  |  | Insecticidal effect, Test Example 3 [1, 5]: A (100); Insecticidal effect, Test Example 1 [2, 6]: A (100) |
| Cc1cc(OC(F)F)ccc1NC(=O)c1cc(F)ccc1C(=O)NC(C)C [compound 534] |  |  | A (100) | A (100) |  |
| Cc1cc(OC(F)F)ccc1NC(=O)c1cccc(SCC(F)(F)F)c1C(=O)NC(C)C [compound 797] |  |  | C (89-80) | A (100) |  |
| Cc1cc(Oc2ccc(C(F)(F)F)cn2)ccc1NC(=O)c1c(F)cccc1C(=O)NC(C)C [compound 576] |  |  | C (89-80) | A (100) |  |
| CC(C)NC(=O)c1cccc(I)c1C(=O)Nc1ccc(C(F)(F)F)cc1Cl [compound 433] |  |  |  |  | Insecticidal effect, Test Example 3 [1, 5]: A (100); Insecticidal effect, Test Example 1 [2, 6]: A (100) |
| Cc1cc(OC(F)F)ccc1NC(=O)c1c(Cl)cccc1C(=O)NC1CC1 [compound 850] |  |  | A (100) | A (100) |  |
| Cc1nc(-c2cccc(NC(=O)c3cccc(I)c3C(=O)NC(C)C)c2)co1 [compound 1659] |  |  |  |  | Insecticidal effect (Test Example 3), judged from mortality [1, 5]: A (100); Insecticidal effect (Test Example 1), judged from mortality [2]: A (100) |
| Cc1cc(OC(C)C)ccc1NC(=O)c1cccc([N+](=O)[O-])c1C(=O)NC(C)C [compound 690] |  |  | A (100) | A (100) |  |
| CC(C)(C)NC(=O)c1ccccc1C(=O)Nc1ccc(OC(F)(F)F)cc1Cl [compound 1021] | A (100) | A (100) |  |  |  |
| CCC(C)CNC(=O)c1c(I)cccc1C(=O)Nc1ccc(C(F)(F)C(F)(F)F)cc1C (stereo not shown) [compound 1026] | A (100) | A (100) |  |  |  |

— US6362369B1, “Phthalic acid diamide derivatives fluorine-containing aniline compounds as starting material, agricultural and horticultural insecticides, and a method for application of the insecticides” (Nihon Nohyaku Co., Ltd., priority 1997, dated 2002)
